Measured values as given in ChEMBL document CHEMBL5346946, “Targeting Arginine Methyltransferase PRMT5 for Cancer Therapy: Updated Progress and Novel Strategies” (J Med Chem, 2023).
One block for each compound: values may come before it.

Experiments:
[1] = target: Voltage-gated inwardly rectifying potassium channel KCNH2 (Homo sapiens, UniProt Q12809); experiment: Inhibition of hERG potassium channel in human HEK293 cells by manual patch clamp assay; type: toxicity, cell-based
HCT-116 = experiment: Anti-proliferative activity against wild type human HCT-116 cells assessed as cell growth inhibition incubated overnight by CellTiter-Glo luminescent assay; type: functional, cell-based
[2] = Anti-proliferative activity against human HCT116-MTAP null cells assessed as cell growth inhibition incubated overnight by CellTiter-Glo luminescent assay; type: functional, cell-based
PRMT5/MEP50 complex [3] = target: T1, PRMT5/MEP50 complex (Homo sapiens, UniProt O14744); experiment: Binding affinity to PRMT5/MEP50 (unknown origin) using histone H4 peptide assessed as inhibition constant preincubated for 24 hrs followed by substrate addition and measured for 2 hrs in the presence of SAM by MTase-Glo Methyl Transferase Assay; type: protein-complex assay
T1 sequence (O14744 whole entry): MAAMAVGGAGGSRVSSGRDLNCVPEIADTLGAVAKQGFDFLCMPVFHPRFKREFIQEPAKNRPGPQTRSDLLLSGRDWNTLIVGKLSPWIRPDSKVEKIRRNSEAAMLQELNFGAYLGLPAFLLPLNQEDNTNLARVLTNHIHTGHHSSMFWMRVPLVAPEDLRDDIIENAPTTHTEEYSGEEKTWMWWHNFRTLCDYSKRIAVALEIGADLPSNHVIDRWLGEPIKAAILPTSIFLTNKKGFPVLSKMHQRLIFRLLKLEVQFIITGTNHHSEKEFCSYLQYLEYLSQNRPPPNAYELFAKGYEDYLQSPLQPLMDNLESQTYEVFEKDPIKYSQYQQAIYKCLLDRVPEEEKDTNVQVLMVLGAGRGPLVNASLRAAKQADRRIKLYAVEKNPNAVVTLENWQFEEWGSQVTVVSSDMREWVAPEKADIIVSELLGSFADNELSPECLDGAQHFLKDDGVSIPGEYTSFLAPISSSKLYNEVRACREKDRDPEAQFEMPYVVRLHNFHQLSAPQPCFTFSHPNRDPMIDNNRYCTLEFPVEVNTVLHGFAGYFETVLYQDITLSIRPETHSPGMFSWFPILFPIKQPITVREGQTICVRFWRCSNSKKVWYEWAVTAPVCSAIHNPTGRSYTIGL
T1 sequence (Q9BQA1 whole entry, further chain): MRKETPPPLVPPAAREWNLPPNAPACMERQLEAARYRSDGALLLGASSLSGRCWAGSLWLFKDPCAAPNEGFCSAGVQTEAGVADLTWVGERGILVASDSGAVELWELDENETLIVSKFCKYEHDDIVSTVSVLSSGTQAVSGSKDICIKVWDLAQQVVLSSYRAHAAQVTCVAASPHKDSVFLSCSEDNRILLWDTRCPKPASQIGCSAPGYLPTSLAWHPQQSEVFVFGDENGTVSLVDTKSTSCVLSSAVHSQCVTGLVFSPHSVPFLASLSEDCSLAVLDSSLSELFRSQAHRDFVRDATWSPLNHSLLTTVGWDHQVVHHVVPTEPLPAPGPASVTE

[4] = Anti-proliferative activity against human HCT116-MTAP null cells assessed as cell growth inhibition incubated for 6 days by CellTiter-Glo Luminescent Cell Viability Assay; type: functional, cell-based; settings: 144 h
PRMT5/MEP50 complex [5] = target: T1, PRMT5/MEP50 complex; experiment: Binding affinity to N-terminal 6xHis-tagged full length human PRMT5/MEP50 expressed in sf21 cells using S-Adenosyl-L-methionine as substrate assessed as dissociation constant incubated for 25 to 60 mins by liquid scintillation analysis
PRMT5/MEP50 complex [6] = target: T1, PRMT5/MEP50 complex; experiment: Inhibition of PRMT5/MEP50 (unknown origin) using histone H4 peptide as substrate preincubated for 30 mins followed by substrate addition and measured for 60 mins by AlphaScreen analysis; type: protein-complex assay
Z-138 [7] = experiment: Anti-proliferative activity against human Z138 cells assessed as cell growth inhibition incubated for 8 days by Cell-Titer Glo assay; type: functional, cell-based; settings: Z-138, 192 h
[8] = target: T2, Protein arginine N-methyltransferase 5 (Homo sapiens, UniProt O14744); experiment: Inhibition of PRMT5 in human Z138 cells assessed as decrease in sDMA modification incubated for 2 days by fluorescence based assay; type: cell-based
T2 sequence (O14744 whole entry): as the sequence (O14744 whole entry) above

[9] = Oral bioavailability in CB17-SCID mouse at 10 mg/kg incubated for 24 hrs by LC-MS/MS analysis; type: ADME, organism-based; settings: in vivo
Z-138 [10] = experiment: Antitumor activity against human Z138 cells xenografted in CB17-SCID mouse at 50 mg/kg, po QD for 3 weeks relative to control; type: functional; settings: Z-138, 504 h, read-out: TGI
[11] = target: T2, Protein arginine N-methyltransferase 5; experiment: Inhibition of PRMT5 in human U-87 MG cells assessed as suppression of sDMA level incubated for 3 days by western blot analysis; type: cell-based
Z-138 [12] = experiment: Antiproliferative activity against human Z138 cells assessed as cell growth inhibition measured after 7 days by CCK-8 assay; type: functional, cell-based; settings: Z-138, 168 h
MDA-MB-468 = experiment: Antiproliferative activity against human MDA-MB-468 assessed as cell growth inhibition measured after 7 days by CCK-8 assay; type: functional, cell-based; settings: MDA-MB-468, 168 h
NCI-H358 = experiment: Antiproliferative activity against human NCI-H358 assessed as cell growth inhibition measured after 7 days by CCK-8 assay; type: functional, cell-based; settings: NCI-H358, 168 h
[13] = target: T2, Protein arginine N-methyltransferase 5; experiment: Inhibition of PRMT5 in human A427 cells assessed as reduction in sDMA level incubated for 72 hrs by liquid scintillation analysis
A-427 [14] = experiment: Antitumor activity in human A-427 harboring RBM10 I348N mutant xenografted in mouse model assessed as tumor growth inhibition at 3 mg/kg administered once daily and measured after 44 days relative to control; type: functional; settings: A-427, 1056 h, time 44 day, read-out: TGI
A-427 [15] = experiment: Antitumor activity in human A-427 harboring RBM10 I348N mutant xenografted in mouse model assessed as tumor growth inhibition at 10 mg/kg administered once daily and measured after 44 days relative to control; type: functional; settings: A-427, 1056 h, time 44 day, read-out: TGI
A-427 [16] = experiment: Antitumor activity in human A-427 harboring RBM10 I348N mutant xenografted in mouse model assessed as tumor growth inhibition at 30 mg/kg administered once daily and measured after 44 days relative to control; type: functional; settings: A-427, 1056 h, time 44 day, read-out: TGI
[17] = In vivo inhibition of PMRT5 in mouse xenografted with human A427 cells assessed as reduction in sDMA level by ELISA (reference value: 66.4%); type: functional, A-427
[18] = Clearance in rat; type: ADME; settings: in vivo
[19] = Volume of distribution at steady state in rat at 2 mg/kg, iv; type: ADME, organism-based; settings: in vivo, read-out: Vdss
[20] = Oral bioavailability in rat at 10 mg/kg; type: ADME, organism-based; settings: in vivo
NCI-H1048 [21] = experiment: Antiproliferative activity against human NCI-H1048 cells assessed as cell growth inhibition incubated for 6 days by MTT assay; type: functional; settings: NCI-H1048, 144 h, time 6 day
[22] = target: PRMT5/MEP50 complex (Homo sapiens) (UniProt O14744+Q9BQA1); experiment: Binding affinity to Full-length human PRMT5/human MEP50 assessed as association constant by SPR analysis; type: protein-complex assay
[23] = target: T2, Protein arginine N-methyltransferase 5; experiment: Inhibition of PRMT5 in human NCI-H1048 cells assessed as reduction in dimethylation of SmD1/3 at 1 nM incubated for 48 hrs relative to control; type: cell-based
[24] = target: T2, Protein arginine N-methyltransferase 5; experiment: Inhibition of PRMT5 in human NCI-H1048 cells assessed as reduction in dimethylation of SmD1/3 at 10 nM incubated for 48 hrs relative to control; type: cell-based
NCI-H1048 [25] = experiment: Antitumor activity against human NCI-H1048 cells xenografted in mouse assessed as tumor growth inhibition at 10 mg/kg, po administered daily for 28 days relative to control; type: functional; settings: NCI-H1048, 672 h, time 28 day, read-out: TGI
NCI-H1048 [26] = experiment: Antitumor activity against human NCI-H1048 cells xenografted in mouse assessed as tumor growth inhibition at 10 mg/kg, po administered daily for 28 days with two cycles of 7 days of treatment followed by 7 days without treatment relative to control; type: functional; settings: NCI-H1048, 672 h, time 28 day, read-out: TGI
[27] = target: T2, Protein arginine N-methyltransferase 5; experiment: Inhibition of PRMT5 (unknown origin)
[28] = target: T2, Protein arginine N-methyltransferase 5; experiment: Inhibition of PRMT5 in human Z138 cells assessed as suppression of sDMA level; type: cell-based
Z-138 [29] = experiment: Antiproliferative activity against human Z138 cells; type: functional, cell-based
Z-138 [30] = experiment: Antitumor activity against human Z138 cells xenografted in mouse as tumor growth inhibition at 1.5 mg/kg, po administered twice daily relative to control; type: functional; settings: read-out: TGI
Z-138 [31] = experiment: Antitumor activity against human Z138 cells xenografted in mouse as tumor growth inhibition at 5 mg/kg, po administered twice daily relative to control; type: functional; settings: read-out: TGI
Z-138 [32] = experiment: Antitumor activity against human Z138 cells xenografted in mouse as tumor growth inhibition at 15 mg/kg, po administered twice daily relative to control; type: functional; settings: read-out: TGI
U-87 MG = experiment: Anti-proliferative activity against human U-87 MG cells assessed as cell growth inhibition incubated for 3 days by CCK-8 assay; type: functional, cell-based, U-87MG ATCC; settings: 72 h

Voltage-gated inwardly rectifying potassium channel KCNH2, sequence (Q12809 whole entry): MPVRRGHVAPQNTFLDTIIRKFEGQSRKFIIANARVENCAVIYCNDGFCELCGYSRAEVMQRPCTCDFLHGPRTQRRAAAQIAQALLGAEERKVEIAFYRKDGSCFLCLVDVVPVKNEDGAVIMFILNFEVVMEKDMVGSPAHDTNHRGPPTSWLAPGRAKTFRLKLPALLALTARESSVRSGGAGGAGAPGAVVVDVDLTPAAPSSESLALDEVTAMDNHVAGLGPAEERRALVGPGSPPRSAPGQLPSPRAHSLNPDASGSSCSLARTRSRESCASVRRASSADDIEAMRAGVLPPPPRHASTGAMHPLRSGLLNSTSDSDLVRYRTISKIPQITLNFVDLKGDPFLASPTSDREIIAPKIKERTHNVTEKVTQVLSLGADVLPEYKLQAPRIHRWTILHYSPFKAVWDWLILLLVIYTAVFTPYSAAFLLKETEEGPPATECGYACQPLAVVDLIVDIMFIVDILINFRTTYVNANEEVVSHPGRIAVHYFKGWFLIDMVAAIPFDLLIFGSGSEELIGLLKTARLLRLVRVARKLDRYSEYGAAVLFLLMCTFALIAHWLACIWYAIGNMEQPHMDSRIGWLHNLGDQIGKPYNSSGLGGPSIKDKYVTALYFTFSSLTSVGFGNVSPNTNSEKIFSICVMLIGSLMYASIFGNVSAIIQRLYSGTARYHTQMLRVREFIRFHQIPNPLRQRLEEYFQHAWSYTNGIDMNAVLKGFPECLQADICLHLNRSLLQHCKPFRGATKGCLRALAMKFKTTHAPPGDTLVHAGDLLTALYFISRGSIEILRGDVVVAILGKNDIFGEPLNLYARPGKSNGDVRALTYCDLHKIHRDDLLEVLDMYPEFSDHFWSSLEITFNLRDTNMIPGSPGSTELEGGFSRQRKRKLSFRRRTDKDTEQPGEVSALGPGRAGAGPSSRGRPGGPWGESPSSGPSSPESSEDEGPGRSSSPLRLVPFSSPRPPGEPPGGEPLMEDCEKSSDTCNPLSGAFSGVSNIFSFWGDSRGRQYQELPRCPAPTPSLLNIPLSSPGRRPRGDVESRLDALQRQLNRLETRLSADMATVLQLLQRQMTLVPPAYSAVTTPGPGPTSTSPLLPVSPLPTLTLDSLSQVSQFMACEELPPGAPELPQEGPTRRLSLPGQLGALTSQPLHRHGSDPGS

SMILES: CC(=O)N1CCC(Nc2cc3c(cn2)C2(CC2)CN(C[C@H](O)CN2CCc4ccccc4C2)C3=O)CC1
IC50 [1]: 5200 nM

IC50 (HCT-116): 142 nM | Ki (PRMT5/MEP50 complex [3]): 0.05 nM
SMILES: Cc1cc2cc(C(=O)N(Cc3ccc(C(F)(F)F)cn3)[C@@H]3CCCc4[nH]ncc43)ccc2nc1N
IC50 [2]: 10 nM | IC50 [4]: 5 nM

Kd (PRMT5/MEP50 complex [5]): 0.241 nM
SMILES: Nc1ncnc2c1ccn2[C@@H]1O[C@H]([C@H](O)c2ccc(Cl)c(F)c2)[C@@H](O)[C@H]1O

IC50 (PRMT5/MEP50 complex [6]): 2.8 nM | IC50 [8]: 0.8 nM | bioavailability [9]: 46.2%
SMILES: CC1(C)CN(C[C@@H](O)[C@@H]2Cc3ccccc3CN2)C(=O)c2ccc(C(=O)N3CCC4(CC3)CC4)cc21
IC50 (Z-138 [7]): 0.3 nM | inhibition in vivo at 50 mg/kg (Z-138 [10]): 93.2%

IC50 [11]: 120 nM
SMILES: Nc1ncnc2c1ccn2[C@@H]1O[C@H]([C@@H]2OCc3cc(Cl)ccc32)[C@@H](O)[C@H]1O

IC50 (MDA-MB-468): 7.4 nM | IC50 (NCI-H358): 5 nM
SMILES: CC(=O)N1CC2(CC(Nc3cc4c(cn3)C3(CC3)CN(C[C@H](O)CN3CCc5ccccc5C3)C4=O)C2)C1
IC50 [1]: 15100 nM | IC50 (Z-138 [12]): 2.2 nM

Kd (PRMT5/MEP50 complex [5]): 0.0114 nM | IC50 [13]: 1.1 nM | clearance [18]: 40 mL/min/kg | Vd [19]: 3.8 L/kg | bioavailability [20]: 40%
SMILES: Cc1ncnc2c1ccn2[C@@H]1C[C@H](Oc2cc(C(F)F)c(F)c3c2CNCC3)[C@@H](O)[C@H]1O
inhibition in vivo at 3 mg/kg (A-427 [14]): 52.1% | inhibition in vivo at 10 mg/kg (A-427 [15]): 74.9% | inhibition in vivo at 30 mg/kg (A-427 [16]): 101% | inhibition (INH) [17]: 79.8%

GI50 (NCI-H1048 [21]): 1.3 nM | Ka [22]: 6.3 10^5/M/s | inhibition [23]: > 50% | inhibition [24]: 80%
SMILES: Nc1nc2cc(CC[C@H]3C[C@@H](n4ccc5c(N)ncnc54)[C@H](O)[C@@H]3O)ccc2cc1Br [ONAMETOSTAT]
inhibition in vivo at 10 mg/kg (NCI-H1048 [25]): 77% | inhibition in vivo at 10 mg/kg (NCI-H1048 [26]): 67%

IC50 [27]: 4.2 nM | IC50 [28]: 1.4 nM
SMILES: CCN1CCN(C[C@@H](O)[C@@H]2Cc3ccccc3CN2)C(=O)c2ccc(C(=O)N3CCC4(CC3)CC(OC)C4)cc21
IC50 (Z-138 [29]): 2.2 nM | inhibition in vivo at 1.5 mg/kg (Z-138 [30]): 36% | inhibition in vivo at 5 mg/kg (Z-138 [31]): 47.8% | inhibition in vivo at 15 mg/kg (Z-138 [32]): 112%

IC50 (U-87 MG): 2.6 nM
SMILES: Nc1ncnc2c1ccn2[C@@H]1O[C@H]([C@@H]2OCCc3cc(Cl)ccc32)[C@@H](O)[C@H]1O
